Source: patent US20250025454A1 (priority 2021, published 2025)

Experiments:
SARS-CoV-2 [1] = settings: 35 compounds tested
SARS-CoV-2/WA1 = type: cell-based; settings: Severe acute respiratory syndrome coronavirus 2, HeLa-ACE2
SARS-CoV-2 [2] = test: microbe, parasite or virus in culture; settings: Severe acute respiratory syndrome coronavirus 2, HeLa-ACE2, 24 h
in vitro = settings: human, EC50, compound toxicity in the context of infection, total cell numbers per well; average±sem of 5 independent experiments

Row | SMILES | activity in the HeLa-ACE2 cell-based SARS-CoV-2 assay (SARS-CoV-2 [1]) | IC50 (SARS-CoV-2/WA1) [nM] | EC50 (SARS-CoV-2 [2]) [nM] | EC50 (in vitro) [nM]
1 | Cc1c2c(nn1C)CSCc1cc(n(C)n1)CSc1cc(c3ccccc3c1)OCCCc1c(C(=O)O)n(C)c3c-2c(Cl)ccc13 [AZD-5991] | demonstrated activity |  |  | 
2 | COc1cc(Cl)cc(C(C)Nc2cc(N3CCNCC3)ccc2S(C)(=O)=O)c1OC.Cl (stereo not shown) [PRX-07034] | demonstrated activity |  |  | 
3 | CNCc1ccc(-c2cc(-c3nc(-c4ccc(S(=O)(=O)C(C)C)cc4)cnc3N)on2)cc1 [berzosertib, reference compound] | demonstrated activity | 110 | 114 | 
4 | COc1ccc(C[C@H](N)C(=O)N[C@H]2[C@@H](O)[C@H](n3cnc4c(N(C)C)ncnc43)O[C@@H]2CO)cc1 [puromycin] |  |  |  | 547 ± 27
5 | Nc1ncnc2c1nc(Cl)n2[C@@H]1O[C@@H]2COP(=O)(O)O[C@H]2[C@H]1O [tocladesine] | demonstrated activity |  |  | 
